Assay results as given in patent US20070213359A1 (ACADIA Pharmaceuticals Inc., priority 2005, published 2007).
Read-outs that look alike come from different tables or passages of the source.

Biological target: Ghrelin receptor (Homo sapiens, UniProt Q92847)
Assay: Receptor Selection and Amplification Technology (R-SAT) assay
Assay type: cell-based
Parameters: expressed in transfected cells; host or cells: NIH3T3
Settings: for Emax: read-out: RSAT Eff(%)
[1] = […], '—' not defined (nd used separately), read-out: RSAT pIC50 (converted)

Chain of Ghrelin receptor (Q92847 whole entry): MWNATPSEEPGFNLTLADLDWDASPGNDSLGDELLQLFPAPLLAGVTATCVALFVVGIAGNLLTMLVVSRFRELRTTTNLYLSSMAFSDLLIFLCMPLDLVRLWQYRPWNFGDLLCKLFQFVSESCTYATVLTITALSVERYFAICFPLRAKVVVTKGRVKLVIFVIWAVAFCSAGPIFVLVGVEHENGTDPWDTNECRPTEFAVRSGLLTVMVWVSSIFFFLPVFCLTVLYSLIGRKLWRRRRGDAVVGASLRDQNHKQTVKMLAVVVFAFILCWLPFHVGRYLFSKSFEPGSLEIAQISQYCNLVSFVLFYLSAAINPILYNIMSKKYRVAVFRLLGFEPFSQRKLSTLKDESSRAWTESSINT

Compound	IC50 [1] [nM]	Emax [%]	RSAT Eff(%)	IC50 (RSAT pIC50) [nM]
COc1cccc2c(C(=O)NCc3cccc(Cl)c3)cn(CCCN3C4CCC3CC(CCc3ccc(Cl)cc3)C4)c12 (stereo not drawn)	0.794	127		
COc1cccc2c(C(=O)C3CC3)cn(CCCN3CCCN(CCc4ccccc4)CC3)c12	1.26	100		
COc1cccc2c(C(=O)C3CC3)cn(CCCN3CCN(CCOc4ccccc4)CC3)c12	7.94	94		
COc1cccc2c(C(=O)Cc3ccccc3)cn(CCCN3CCN(c4ncc(C(F)(F)F)cc4Cl)CC3)c12	7.94	95		
COc1cccc2c(C(=O)NCc3cccc(C)c3)cn(CCCN3C4CCC3CC(CCc3ccccc3)C4)c12 (stereo not drawn)	10	89		
COc1cccc2c(C(=O)NCC(C)C)cn(CCCN3CCC4(CC3)CC(=O)c3ccccc3O4)c12	12.6	115		
COc1cccc2c(C(=O)NCC(C)C)cn(CCCN3CCCN(Cc4ccccc4Cl)CC3)c12	15.8	100		
COc1cccc2c(C(=O)NCC(C)C)cn(CCCN3C4CCC3CC(CCc3ccccc3)C4)c12 (stereo not drawn)	15.8	86		
COc1cccc2c(C(=O)c3ccccc3)cn(CCCN3C4CCC3CC(CCc3ccc(Cl)cc3)C4)c12 (stereo not drawn)	15.8	94		
COc1cccc2c(C(=O)C3CC3)cn(CCCNCCOc3ccccc3)c12	15.8	83		
COc1cccc2c(C(=O)NCc3cccc(C)c3)cn(CCCN3CCC(c4nc(-c5ccncc5)no4)CC3)c12	15.8	121		
COc1cccc2c(C(=O)NCc3cccc(Cl)c3)cn(CCCN3CCC(c4nc(-c5cccnc5)no4)CC3)c12	20	103		
COc1cccc2c(C(=O)NCc3cccc(Cl)c3)cn(CCCN3CCCN(Cc4ccccc4Cl)CC3)c12	20	107		
COc1cccc2c(C(=O)C3CC3)cn(CCCN3CCC(c4nc(-c5ccncc5)no4)CC3)c12	20	87		
CC(=O)c1cn(CCCN2CCC(N3C(=O)Cc4ccccc43)CC2)c2c(C#N)cccc12	20		133	
COc1cccc2c(C(=O)Cc3ccccc3)cn(CCCN3CCC(c4nc(-c5cccnc5)no4)CC3)c12		88		20
COc1cccc2c(C(=O)C3CC3)cn(CCCNC3Cc4ccccc4C3)c12	25.1	97		
COc1cccc2c(C(=O)NCc3cccc(C)c3)cn(CCCN3C4CCC3CC(CCc3ccc(Cl)cc3)C4)c12 (stereo not drawn)	25.1	77		
COc1cccc2c(C(=O)Cc3ccccc3)cn(CCCN3CCC(c4nc(-c5ccncc5)no4)CC3)c12	25.1	137		
COc1cccc2c(C(=O)c3ccccc3)cn(CCCN3CCC(c4nc(-c5ccncc5)no4)CC3)c12	25.1	98		
COc1cccc2c(C(=O)NCC(C)C)cn(CCCN3CCN(Cc4ccc(Cl)cc4Cl)CC3)c12	25.1	105		
COc1cccc2c(C(=O)NCC(C)C)cn(CCCNC3Cc4ccccc4C3)c12	31.6	102		
COc1cccc2c(C(=O)NCC(C)C)cn(CCCN3CCN(c4ncc(C(F)(F)F)cc4Cl)CC3)c12	31.6	100		
COc1cccc2c(C(=O)NCc3cccc(Cl)c3)cn(CCCN3CCC(c4nc(-c5ccncc5)no4)CC3)c12	31.6	105		
COc1cccc2c(C(=O)NCc3cccc(C)c3)cn(CCCN3CCN(c4ncc(C(F)(F)F)cc4Cl)CC3)c12	39.8	80		
COc1cccc2c(C(=O)C3CC3)cn(CCCN3CCC(c4nc(-c5cccnc5)no4)CC3)c12	39.8	96		
COc1cccc2c(C(=O)c3ccccc3)cn(CCCN3CCC(c4nc(-c5cccnc5)no4)CC3)c12	39.8	80		

Compound	IC50 [1] [nM]	Emax [%]	RSAT Eff(%)	IC50 (RSAT pIC50) [nM]
COc1cccc2c(C(=O)C3CC3)cn(CCCN3CCC(N4C(=O)Cc5ccccc54)CC3)c12	39.8		110	
COc1cccc2c(C(=O)NCc3cccc(Cl)c3)cn(CCCN3CCN(c4ncc(C(F)(F)F)cc4Cl)CC3)c12	39.8	107		
CC(=O)c1cn(CCCN2CCC(c3nc(-c4cccnc4)no3)CC2)c2c(C#N)cccc12	50.1	77		
COc1cccc2c(C(=O)Cc3ccccc3)cn(CCCNCCOc3ccccc3)c12	50.1	92		
CC(=O)c1cn(CCCNCCOc2ccccc2)c2c(Br)cccc12	50.1	132		
COc1cccc2c(C(=O)Cc3ccccc3)cn(CCCNC3Cc4ccccc4C3)c12	50.1	103		
COc1cccc2c(C(=O)NCc3cccc(Cl)c3)cn(CCCN3CCC4(CC3)CC(=O)c3ccccc3O4)c12	63.1	7.8		
COc1cccc2c(C(=O)NCC(C)C)cn(CCCN3CCC(c4nc(-c5cccnc5)no4)CC3)c12	63.1	93		
COc1cccc2c(C(=O)NCC(C)C)cn(CCCN3C4CCC3CC(CCc3ccc(Cl)cc3)C4)c12 (stereo not drawn)	63.1	85		
COc1cccc2c(C(=O)c3ccccc3)cn(CCCN3CCCC(Cc4ccccc4Cl)C3)c12 (stereo not drawn)	63.1	82		
COc1cccc2c(C(=O)C3CC3)cn(CCCN3C4CCC3CC(Oc3ccc(F)cc3)C4)c12 (stereo not drawn)	63.1	131		
COc1cccc2c(C(=O)Cc3ccccc3)cn(CCCN3CCC4(CC3)CC(=O)c3ccccc3O4)c12	79.4	98		
COc1cccc2c(C(=O)NCC(C)C)cn(CCCN3CCC(C(=O)c4ccccc4)CC3)c12	79.4	114		
CC(=O)c1cn(CCCN2CCC(N3C(=O)Cc4ccccc43)CC2)c2c(Br)cccc12	100		60	
COc1cccc2c(C(=O)NCc3cccc(C)c3)cn(CCCN3CCC(C(=O)c4ccccc4)CC3)c12	100	126		
CCc1cccc2c(C(C)=O)cn(CCCN3CCC(N4C(=O)Cc5ccccc54)CC3)c12	100		147	
CC(=O)c1cn(CCCN2CCCN(CCc3ccccc3)CC2)c2c(C)cccc12	100	102		
CC(C)CC(=O)c1cn(CCCN2CCC(c3nc4c(s3)C=CCC4)CC2)c2ccccc12	126	108		
COc1cccc2c(C(=O)NCC(C)C)cn(CCCN3CCN(CCOc4ccccc4)CC3)c12	126	118		
CCc1cccc2c(C(C)=O)cn(CCCN3CCC4(CC3)CC(=O)c3ccccc3O4)c12	126	85		
COc1cccc2c(C(=O)C3CC3)cn(CCCN3CCCC(Oc4ccc(Cl)cc4)C3)c12 (stereo not drawn)	126	37		
COc1cccc2c(C(C)=O)cn(CCCN3CCC(C#N)(c4ccccc4)CC3)c12		101		200
COc1cccc2c(C(=O)NCc3cccc(C)c3)cn(CCCN3CCC(N4C(=O)Cc5ccccc54)CC3)c12	2000		43	
CC(=O)c1cn(CCCN2CCC(N3C(=O)Cc4ccccc43)CC2)c2c(C)cccc12	12600		69	
CC(=O)c1cn(CCCN2CCC(N3C(=O)Cc4ccccc43)CC2)c2c(Cl)cccc12			28	
CC(=O)c1c(C)n(CCCN2CCC(N3C(=O)Cc4ccccc43)CC2)c2c(Br)cccc12			12	
COc1cccc2c(C#N)cn(CCCN3CCC(N4C(=O)Cc5ccccc54)CC3)c12			33	
